Source: patent US4263295A, “Psychoactive 3-(1-2-diarylethyl)-1,4,5,6-tetrahydro-1,2,4-triazines and their method of use” (The Dow Chemical Company, priority 1977, dated 1981)
Where a name gives a salt, the structure may show the parent alone.

Tests used:
[1] = tested on: anxiety; assay: Antianxiety activity, test not specified (background and summary statements); assay type: in vivo; conditions: test not stated
[2] = tested on: depression; conditions: U.S. Pat. No. 3,471,486; Journal of Medicinal Chemistry, 12, 257 (1969); cited from earlier work
[3] = tested on: serum corticosteroid levels; assay: Block of stress-induced rise of serum corticosteroid levels (antianxiety); assay type: in vivo; conditions: stressed male rats, 20 mg/kg i.p.; for response vs control in vivo at 20 mg/kg: Rattus norvegicus, ip, saline control 100, values below 100% are indicative of activity, read-out: Serum Corticosteroid Levels μg %
Experimental: See British Medical Journal, 1971 (2), p. 310-313. Corticosteroid levels were compared between stressed male rats pretreated with 20 mg/kg of the active compound given by intraperitoneal injection to corticosteroid levels of stressed male rats pretreated with saline. Blood (3 ml) was collected by means of cardiac puncture after methoxyflurane anesthesia. Following clotting, the blood was centrifuged to separate the serum for use in the corticosteroid analysis. The analysis was carried out by adding 5 ml of methylene chloride to 300 μl of the serum sample and vortexing the sample for 15-20 seconds. The samples were then centrifuged at 41 xg for about 5 minutes. The lipid layer was removed by aspiration and 3 ml of the methylene chloride fraction was transferred to a clean tube. To this sample, 3 ml of fluorescence reagent (25% ethanol and 75% concentrated sulfuric acid) was added and vortexed for 5 seconds. Fluorescence development was complete in 20 minutes and was read on a Perkin-Elmer® fluorometer Model 204 at an exciter wavelength of 470 mμ and an analyzer wavelength of 530 mμ. This assay measures free cortisol and corticosterone. The corticosteroid values were calculated as follows: [formula] […] Values below 100% are indicative of activity.

[4] = tested on: reserpine-induced ptosis; assay: Protection against reserpine-induced ptosis (antidepressant); assay type: in vivo; conditions: Mus musculus; mice, 30 mg/kg i.p.; reserpine 2.5 mg/kg s.c. after 30 minutes; graded after 45 minutes; saline control 0
Experimental: Groups of four mice were administered 30 mg/kg of the 3-(1,2-diarylethyl)-1,4,5,6-tetrahydro-1,2,4-triazine compounds by intraperitoneal injection via an aqueous carrier. A similar group of mice serving as controls were injected only with the carrier. After 30 minutes, both groups of mice were injected subcutaneously with 2.5 mg/kg of reserpine.
Animals injected with the triazine compound were graded after 45 minutes on the following basis: no ptosis=0, partial ptosis=1, complete ptosis=2. Complete protection against reserpine-induced ptosis gives a value of 0 or 100%.

| SMILES | antianxiety activity of prior-art compound (in words) [1] | antidepressant activity of prior-art compound (in words) [2] | response vs control in vivo at 20 mg/kg [3] [%] | antianxiety activity (in words, from Table II) [3] | inhibition at 30 mg/kg [4] [%] |
| --- | --- | --- | --- | --- | --- |
| c1ccc(CC(C2=NNCCN2)c2ccccc2)cc1 (stereo not drawn) [3-(1,2-diphenylethyl)-1,4,5,6-tetrahydro-1,2,4-triazine] | essentially inactive | antidepressant |  |  |  |
| Cl.Fc1ccc(CC(C2=NNCCN2)c2ccccc2)cc1 (stereo not drawn) [Example 1, 3-(2-(4-fluorophenyl)-1-phenylethyl)-1,4,5,6-tetrahydro-1,2,4-triazine monohydrochloride] |  |  | 25 | especially active as antianxiety agents | 63 |
| Cl.Clc1ccc(CC(C2=NNCCN2)c2ccccc2)cc1 (stereo not drawn) [Example 2, 3-(2-(4-Chlorophenyl)-1-phenylethyl)-1,4,5,6-tetrahydro-1,2,4-triazine monohydrochloride] |  |  | 13 | especially active as antianxiety agents | 88 |
| COc1ccc(C(Cc2ccc(F)cc2)C2=NNCCN2)cc1 (stereo not drawn) [Example 3, 3-(2-(4-Fluorophenyl)-1-(4-methoxyphenyl)ethyl)-1,4,5,6-tetrahydro-1,2,4-triazine monohydrochloride] |  |  | 82 |  | 38 |
| Cc1ccc(C(Cc2ccccc2)C2=NNCCN2)cc1 (stereo not drawn) [Example 4, 3-(1-(4-Methylphenyl)-2-phenylethyl)-1,4,5,6-tetrahydro-1,2,4-triazine monohydrochloride] |  |  | 67 |  | 38 |
| Cc1cccc(CC(C2=NNCCN2)c2ccccc2)c1 (stereo not drawn) [Example 5] |  |  | 32 |  | 25 |
| Cc1ccc(CC(C2=NNCCN2)c2ccccc2)cc1 (stereo not drawn) [Example 6] |  |  | 62 |  | 50 |
| Clc1cccc(CC(C2=NNCCN2)c2ccccc2)c1 (stereo not drawn) [Example 7] |  |  | 75 |  | 88 |
| Cc1cccc(C(Cc2ccccc2)C2=NNCCN2)c1 (stereo not drawn) [Example 8] |  |  | 52 |  | 38 |
| c1ccc(CC(C2=NNCCN2)c2ccc3c(c2)OCO3)cc1 (stereo not drawn) [Example 9] |  |  | 33 | especially active as antianxiety agents | 50 |
| c1ccc(CC(C2=NNCCN2)c2ccc3ccccc3c2)cc1 (stereo not drawn) [Example 10, 3-(1-(2-Naphthalenyl)-2-phenylethyl)-1,4,5,6-tetrahydro-1,2,4-triazine monohydrochloride] |  |  | 54 |  | 50 |
| c1ccc(CC(C2=NNCCN2)c2cccc3ccccc23)cc1 (stereo not drawn) [Example 11] |  |  | 77 |  | 25 |
| Cc1ccc(CC(C2=NNCCN2)c2ccccc2)cc1C (stereo not drawn) [Example 12] |  |  | 33 | especially active as antianxiety agents | 25 |
| Clc1cccc(Cl)c1CC(C1=NNCCN1)c1ccccc1 (stereo not drawn) [Example 13, 3-(2-(2,6-Dichlorophenyl)-1-phenylethyl)-1,4,5,6-tetrahydro-1,2,4-triazine monohydrochloride] |  |  | 39 |  | 88 |
| Clc1ccc(CC(C2=NNCCN2)c2ccccc2)cc1Cl (stereo not drawn) [Example 14] |  |  | 79 |  | 63 |
| c1ccc(C(Cc2cccc3ccccc23)C2=NNCCN2)cc1 (stereo not drawn) [Example 15] |  |  | 72 |  | 13 |
| c1ccc(C(Cc2ccc3ccccc3c2)C2=NNCCN2)cc1 (stereo not drawn) [Example 16] |  |  | 39 | especially active as antianxiety agents | 42 |
| Fc1cccc(CC(C2=NNCCN2)c2ccccc2)c1 (stereo not drawn) [Example 17] |  |  | 62 |  | 25 |
| CN1CCNC(C(Cc2ccc(Cl)cc2)c2ccccc2)=N1 (stereo not drawn) [Example 18, 3-(2-(4-Chlorophenyl)-1-phenylethyl)-1,4,5,6-tetrahydro-1-methyl-1,2,4-triazine monohydrochloride] |  |  | 77 |  | 50 |
| CC(=O)N1CCN(C)N=C1C(Cc1ccccc1)c1ccccc1 (stereo not drawn) [Example 19, 4-acetyl-3-(1,2-diphenylethyl)-1,4,5,6-tetrahydro-1-methyl-1,2,4-triazine monohydrochloride] |  |  | 77 |  | 13 |
